Reference: USRE47689E1, “Compounds for treating spinal muscular atrophy” (PTC Therapeutics, Inc., priority 2011, dated 2019)
Where two headings read alike, the source gives them in different places.

Legend:
[1] = test system: Smn protein; assay: Smn protein assay in cultured cells (SMN HTRF); format: cell-based, human; settings: 48 hours; for maximum fold (Fold) increase of Smn protein: SMA patient fibroblast cells, 7-point concentration data, fold increase relative to vehicle control (SMN HTRF); for EC1.5x (concentration giving 1.5-fold Smn protein increase): SMA Type 1 patient fibroblast cells (GM03813), 7-point concentration curve, SMN HTRF, concentration producing 1.5 times Smn protein vs DMSO vehicle control, read-out: EC1.5x for Smn protein expression
Method in brief: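 Lysates in RIPA with protease inhibitors are incubated overnight at room temperature with HTRF anti-SMN antibodies. EC1.5x is derived from fold increase in ΔF over vehicle.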

[2] = test system: SMN2 minigene (full length SMN2 minigene mRNA containing SMN2 exon 7); assay: SMN2 minigene mRNA splicing RT-qPCR assay in cultured cells; format: cell-based, human; settings: Homo sapiens, HEK293-H, read-out: EC1.5x for production of full length SMN2 mRNA
Method in brief: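 Read-out: full-length (exon 7-included) SMN2 minigene mRNA by multiplex RT-qPCR with GAPDH, efficiency-corrected (1+E)^−Ct, GAPDH-normalized and divided by vehicle. Stably transfected HEK293H cells, 24 h compound exposure, duplicates per concentration. Value is EC1.5x, reported as star ranges.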

[3] = HEK293H cells stably transfected with SMN2-A minigene, 24 hours, 7-point concentration curve, 1.5-fold relative to vehicle-treated cells

Row | SMILES | melting point | maximum fold (Fold) increase of Smn protein [1] | EC (1.5-fold) [2, 3] [µM] | EC1.5x (concentration giving 1.5-fold Smn protein increase) [1] [nM] | EC (1.5-fold) ([2]; 24 h) [µM]
1 | Cc1ccn2cc(-c3cc4ccc(N5CCNC6(CCC6)C5)cc4oc3=O)nc2c1 [Compound 595, 7-(5,8-diazaspiro[3.5]non-8-yl)-3-(7-methylimidazo[1,2-a]pyridin-2-yl)-2H-chromen-2-one] | 226 to 233 °C | ** (fold increase between >1.2 and ≤1.35) | 0.3 to 1 |  | 
2 | CCN1C[C@@H]2C[C@H]1CN2c1ccc2cc(-c3cn4cc(C)nc(C)c4n3)c(=O)oc2c1 [Compound 793, 3-(6,8-dimethylimidazo[1,2-a]pyrazin-2-yl)-7-[(1S,4S)-5-ethyl-2,5-diazabicyclo[2.2.1]hept-2-yl]-2H-chromen-2-one] | 133 to 135 °C | **** (fold increase between >1.5 and ≤1.65) | < 0.1 | < 300 | 
3 | O=c1oc2cc(CN3CCC(O)CC3)ccc2cc1-c1cn2ccsc2n1 [Compound 346, 7-[(4-hydroxypiperidin-1-yl)methyl]-3-(imidazo[2,1-b][1,3]thiazol-6-yl)-2H-chromen-2-one] | 248 to 252 °C | ** (fold increase between >1.2 and ≤1.35) | 3 to 30 |  | 
4 | Cc1cccn2cc(-c3cc4ccc(N5CCN6CCC5CC6)cc4oc3=O)nc12 [Compound 505, 7-(1,4-diazabicyclo[3.2.2]non-4-yl)-3-(8-methylimidazo[1,2-a]pyridin-2-yl)-2H-chromen-2-one] | 278 °C (dec.) | * (maximum fold increase of ≤1.2) |  |  | 3 to 30
5 | Cc1nc(Cl)cn2cc(-c3cc4ccc(N5CC[C@H](N(C)C)C5)cc4oc3=O)nc12 [Compound 765, 3-(6-chloro-8-methylimidazo[1,2-a]pyrazin-2-yl)-7-[(3S)-3-(dimethylamino)pyrrolidin-1-yl]-2H-chromen-2-one] | 210 to 215 °C | * (maximum fold increase of ≤1.2) | 0.3 to 1 |  | 
6 | Cc1cn2cc(-c3cc4ccc(OCCN5CCC(O)CC5)cc4oc3=O)nc2c(C)n1 [Compound 957, 3-(6,8-dimethylimidazo[1,2-a]pyrazin-2-yl)-7-[2-(4-hydroxypiperidin-1-yl)ethoxy]-2H-chromen-2-one] | 187 to 190 °C | **** (fold increase between >1.5 and ≤1.65) | < 0.1 | 300 to 1000 | 
7 | Cc1cn2cc(-c3cc4ccc(OCCN(C)C)cc4oc3=O)nc2c(C)n1 [Cpd 876, 7-[2-(dimethylamino)ethoxy]-3-(6,8-dimethylimidazo[1,2-a]pyrazin-2-yl)-2H-chromen-2-one] | 251 to 253 °C | **** (fold increase between >1.5 and ≤1.65) | < 0.1 | < 300 | 
8 | Cc1ccn2cc(-c3cc4ccc(N5CCN[C@H](C)C5)cc4oc3=O)nc2c1 [Compound 214, 3-(7-methylimidazo[1,2-a]pyridin-2-yl)-7-[(3R)-3-methylpiperazin-1-yl]-2H-chromen-2-one] | 222 °C | ** (fold increase between >1.2 and ≤1.35) | 0.3 to 1 |  | 
9 | O=c1oc2cc(N3C[C@@H]4C[C@H]3CN4)ccc2cc1-c1nc(C(F)(F)F)cs1 [Compound 266, 7-[(1S,4S)-2,5-diazabicyclo[2.2.1]hept-2-yl]-3-[4-(trifluoromethyl)-1,3-thiazol-2-yl]-2H-chromen-2-one] | 211 to 220 °C | * (maximum fold increase of ≤1.2) | 1 to 3 |  | 
10 | Cc1cn2cc(-c3cc4ccc(OC[C@H]5CCCN5)cc4oc3=O)nc2c(C)n1 [Cpd 948, 3-(6,8-dimethylimidazo[1,2-a]pyrazin-2-yl)-7-[(2R)-pyrrolidin-2-ylmethoxy]-2H-chromen-2-one] | 172 to 174 °C | *** (fold increase between >1.35 and ≤1.5) | < 0.1 |  | 
11 | Cc1csc(-c2cc3ccc(N4C[C@@H](C)NC[C@@H]4C)cc3oc2=O)n1 [Compound 299, 7-[(2S,5R)-2,5-dimethylpiperazin-1-yl]-3-(4-methyl-1,3-thiazol-2-yl)-2H-chromen-2-one] | 184 to 190 °C | * (maximum fold increase of ≤1.2) | 1 to 3 |  | 
12 | O=c1oc2cc(N3CCNCC3)ccc2cc1-c1cccnc1 [Compound 12, 7-(piperazin-1-yl)-3-(pyridin-3-yl)-2H-chromen-2-one] | 170 to 172 °C | * (maximum fold increase of ≤1.2) |  |  | 3 to 30
13 | Cc1cn2cc(-c3cc4ccc(NC5C[C@H]6CCC[C@@H](C5)N6C)cc4oc3=O)cc2c(C)n1 (stereo partly drawn) [Compound 728, 3-(1,3-dimethylpyrrolo[1,2-a]pyrazin-7-yl)-7-{[(1R,5S)-9-methyl-9-azabicyclo[3.3.1]non-3-yl]amino}-2H-chromen-2-one] | 235 to 238 °C | * (maximum fold increase of ≤1.2) |  |  | 0.3 to 1
14 | O=c1oc2cc(N3CCN4CCC[C@@H]4C3)ccc2cc1-c1cn2cccc(F)c2n1 [Compound 531, 3-(8-fluoroimidazo[1,2-a]pyridin-2-yl)-7-[(8aR)-hexahydropyrrolo[1,2-a]pyrazin-2(1H)-yl]-2H-chromen-2-one] | 238 to 241 °C | ** (fold increase between >1.2 and ≤1.35) | 0.3 to 1 |  | 
15 | CN1CCCN(c2cc(F)c3cc(-c4cn5ccsc5n4)c(=O)oc3c2)CC1 [Compound 373, 5-fluoro-3-(imidazo[2,1-b][1,3]thiazol-6-yl)-7-(4-methyl-1,4-diazepan-1-yl)-2H-chromen-2-one] | 205 to 207 °C | **** (fold increase between >1.5 and ≤1.65) | < 0.1 | 300 to 1000 | 
16 | COc1cc(-c2cc3ccc(N4CCN(C)CC4)cc3oc2=O)ccn1 [Compound 165, 3-(2-methoxypyridin-4-yl)-7-(4-methylpiperazin-1-yl)-2H-chromen-2-one] | 169 to 171 °C | ** (fold increase between >1.2 and ≤1.35) | 3 to 30 |  | 
17 | Cc1cn2cc(-c3cc4ccc(N5CC(N6CCCCC6)C5)cc4oc3=O)nc2c(C)n1 [Compound 951, 3-(6,8-dimethylimidazo[1,2-a]pyrazin-2-yl)-7-[3-(piperidin-1-yl)azetidin-1-yl]-2H-chromen-2-one] | 284 to 286 °C | **** (fold increase between >1.5 and ≤1.65) | < 0.1 | 1000 to 3000 | 
18 | Cc1cn2cc(-c3cc4ccc(C5CCNCC5)cc4oc3=O)cnc2n1 [Compound 834, 3-(2-methylimidazo[1,2-a]pyrimidin-6-yl)-7-(piperidin-4-yl)-2H-chromen-2-one] | 280 to 281 °C | ***** (fold increase >1.65) | < 0.1 | < 300 | 
19 | CCN1CCN(c2ccc3cc(-c4cn5cc(Cl)nc(C)c5n4)c(=O)oc3c2)CC1 [Compound 766, 3-(6-chloro-8-methylimidazo[1,2-a]pyrazin-2-yl)-7-(4-ethylpiperazin-1-yl)-2H-chromen-2-one] | 228 to 230 °C | *** (fold increase between >1.35 and ≤1.5) | < 0.1 |  | 
20 | CCc1ccn2cc(-c3cc4ccc(N5CCNCC5)cc4oc3=O)nc2c1 [Compound 287, 3-(7-ethylimidazo[1,2-a]pyridin-2-yl)-7-(piperazin-1-yl)-2H-chromen-2-one] | 253 to 263 °C | * (maximum fold increase of ≤1.2) | 0.3 to 1 |  | 
21 | Cc1ccn2cc(-c3cc4ccc(N(C)CCN(C)C)cc4oc3=O)nc2n1 [Compound 226, 7-{[2-(dimethylamino)ethyl](methyl)amino}-3-(7-methylimidazo[1,2-a]pyrimidin-2-yl)-2H-chromen-2-one] | 188 to 191 °C | * (maximum fold increase of ≤1.2) | 3 to 30 |  | 
22 | C[C@@H]1CN(c2ccc3cc(-c4ccc5c(c4)OCCO5)c(=O)oc3c2)C[C@H](C)N1 [Compound 514, 3-(2,3-dihydro-1,4-benzodioxin-6-yl)-7-[(3R,5S)-3,5-dimethylpiperazin-1-yl]-2H-chromen-2-one] | 138 to 140 °C | * (maximum fold increase of ≤1.2) | 3 to 30 |  | 
23 | Cc1cc([N+](=O)[O-])c2nc(-c3cc4ccc(N5CCN[C@@H](C)C5)cc4oc3=O)cn2c1 [Compound 703, 3-(6-methyl-8-nitroimidazo[1,2-a]pyridin-2-yl)-7-[(3S)-3-methylpiperazin-1-yl]-2H-chromen-2-one] | 251 to 259 °C | ** (fold increase between >1.2 and ≤1.35) | 1 to 3 |  | 
24 | CCCN1CCN(c2ccc3cc(-c4cc5cc(C)ccn5n4)c(=O)oc3c2)CC1 [Compound 308, 3-(5-methylpyrazolo[1,5-a]pyridin-2-yl)-7-(4-propylpiperazin-1-yl)-2H-chromen-2-one] | 228 to 230 °C | ** (fold increase between >1.2 and ≤1.35) | 3 to 30 |  | 
